Laboratory results from US6383521B1, “Wondonin A and process for preparing the same” (Korea Ocean Research and Development, priority 2000, dated 2002).

How the values were obtained:
[1] = tested on: Human umbilical vascular endothelial cells (HUVEC); assay: Invasion assay of HUVEC through Matrigel/Type IV collagen coated filter; type: cell-based; settings: 10 μg/ml Wondonin A medium, bFGF, 18 hours
Experimental: Powdered medium 199 (M 199, Sigma Chemical Co., U.S.A.) and 2.2 g (per liter) of sodium bicarbonate was dissolved in double distilled water, pH of the medium was adjusted to 7.2 with HCl, and followed by sterile filtration on a […] Millipore filter. Then, a medium was finally prepared by supplementing, just before use, with 20% (w/v) FBS (fetal bovine serum ), 1% (w/v) Penicillin-Streptomycin (P-S), 3 ng/ml bFGF (basic fibroblast growth factor, a growth factor for angiogenesis) and 100 μg/ml heparin. Human umbilical vascular endothelial cells (“HUVEC”) purchased from ATCC (American Type Culture Collection) were seeded to 6 ml of the medium thus prepared in a T25 flask (25 cm^2) and grown to form a monolayer in an incubator at 37° C. under an environment of 5% (v/v) CO2 and saturated humidity, and then subcultured in a medium containing 0.05% (w/v) Trypsin-EDTA.
For invasion assay, lower surface of the polycarbonate filter (pore size: 8 μm) equipped in an insert chamber was coated with 5 μg of Type IV collagen and upper surface of the filter was coated with 25 μg of Matrigel (Collaborative Research, Inc., Waltham, Mass., U.S.A.). […] After staining of the fixed cells with haematoxillin and eosin, Matrigel was detached from the filter and HUVEC cells which have passed through the filter were counted. […]

[2] = tested on: vascular endothelial cells; assay: Viability of vascular endothelial cells (Trypan Blue); type: cell-based, Human; settings: 48 hour incubation, medium without FBS
Experimental: Vascular endothelial cells grown on Example 3 were placed onto a 24-well plate with 5×10^4 cells/well starting cell number in 1 ml (per well) of the same medium as in Example 3 except for containing 10% (v/v) FBS, and incubated at 37° C. under an environment of 5% (v/v) CO2 for 24 hours to the level of 80% cell confluency. Then, cells were rinsed with 1 ml of PBS and 1 ml of the same medium without FBS was added and then Wondonin A was added to reach the concentrations of […], respectively. After 48 hour incubation, medium was removed and cells were harvested by trypsinization. Cells were stained in a medium containing 0.4% (w/v) Trypan Blue at room temperature and then counted with haemacytometer. The cell viability was assessed based on total cell number and stained cell number (see: Table 1).

[3] = tested on: chick embryo chorioallantoic membrane; assay: Chick embryo chorioallantoic membrane assay; type: in vivo; settings: ratio of embryos with avascular zone to total embryos; cover slip on CAM, 2 days incubation
Experimental: On day 3.5, a part of egg shell was cracked gently, and on day 4.5, a cover slip containing Wondonin A (prepared by drying […] Wondonin A in methanol on a cover slip) or a control cover slip (prepared by drying 2 μl of methanol on a cover slip) was placed on the chorioallantoic membrane (CAM) through the crack and then the crack was sealed. After incubation for 2 days, 10% fat emulsion was injected to CAM, which was examined under a microscope. The embryos with a clear avascular zone (inhibition of angiogenesis) were counted and inhibitory effect of Wondonin A on angiogenesis was evaluated by calculating the ratio of the number of embryo with avascular zone to the total number of embryo tested (see: Table 2).

[4] = Physicochemical data of Wondonin A
Text: The spectrophotomeric data of Wondonin A are as follows: […]

SMILES: CN(C)CCc1cn(C(c2ccc(O)c(O)c2)C2Oc3ccc(/C=C/OS(=O)(=O)[O-])cc3O2)cn1.[Na+] (stereo not drawn) [Wondonin A]
- reduction in a cell number passed through the filter compared to the control group [1]: 66%
- Viability (%) ([2]; Wondonin A 1 μg/ml): 98%
- Viability (%) ([2]; Wondonin A 10 μg/ml): 97%
- Inhibition of angiogenesis (%) [3]: 89%
- solubility in polar organic solvents ([4]; methanol and dimethylsulfoxide): highly soluble
- stability ([4]; pale-yellow semi-solid at room temperature): stable
